Columns and labels:
[1] = competitive ELISA, plasma of DSS-treated mice, all three administration schemes
Procedure: To ensure that therapeutic levels of peptide inhibitors A and B were attained during all three administration schemes, plasma levels were measured with competitive ELISAs as described previously.
Supplementary figure 8: Levels of peptide inhibitors A and B in plasma of DSS-treated mice at time of sacrifice. (a) Plasma levels of peptide inhibitor A measured with ELISA in DSS-treated mice that received either peptide inhibitor A (n=19) or saline (n=9) injections for all three different administration schemes (therapeutic, prophylactic and continuous).
(b) Similar ELISA analyses […]
were performed for detection of peptide inhibitor B in plasma of DSS-treated mice (n=19). This […]
similar as in Figures 9 and 10. Box plots are shown with 5-95 percentiles.
(1 picture or pasted object on this page, not shown here)

[2] = test system: Mmp3, Mmp8, Mmp9 mRNA in colonic mouse tissue; assay: Colonic mRNA expression of Mmps (quantitative RT-PCR) after peptide inhibitor administration; assay type: in vivo; details: DSS mice
From the text: Figure 10 Relative mRNA expression of specific Mmps and Tace after administration of peptide MMP inhibitors. Relative mRNA expression measured in colonic mouse tissue after a therapeutic injection scheme (n=16) (a), a prophylactic injection scheme (n=23) (b) and continuous osmotic pump delivery (n=22) (c) of peptide inhibitors A and B. Expression levels were normalized to the control condition (water+saline) and 18S with the use of the 2-delta delta CT method. Mean values with s.e.m. are shown. Statistical analyses were performed with Mann–Whitney U tests (*P<0.05, **P≤0.01; NS, not significant). Colour codes are similar as in Figs 8 and 9.
Snap-frozen mouse colonic fragments were mechanically homogenized with the use of Precellys 24 homogenizer (VWR, Leuven, Belgium). Total RNA was extracted according to the manufacturer's guidelines (RNeasy Mini kit, Qiagen, Hilden, Germany, #74104) and quantified with the use of a Nanodrop ND-1000 Spectrophotometer (Isogen Life Science, Temse, Belgium). cDNA was synthesized with the use of High-Capacity cDNA Reverse Transcription Kit (Applied Biosystems, Foster City, CA, USA). Mmp3, Mmp8, Mmp9 and Tace mRNA levels were analysed in duplicate on 25 ng cDNA by quantitative RT-PCR with the use of TaqMan Universal PCR Master Mix from Applied Biosystems and primer and probe sets from Integrated DNA Technologies (Leuven, Belgium; Supplementary Table 3). Data were normalized to 18S ribosomal RNA levels.

MMP-3 = details: Supplementary table 2, no method in this paper, known effects, cited from earlier work
From the text: (§1) page 11: Supplementary table 2: IC50 values of peptide inhibitors A and B towards MMP -3, -8, -9 and TACE (μM). Name Peptide sequences† MMP-3 MMP-8 MMP-9 TACE Peptide inhibitor […] No inhibition 17.6 12.5 7.0 (CPU 1) Peptide inhibitor […] 7.0 0.036 0.16 15 (CPU 2) † Peptide sequences are in one-letter codes for amino acids. Pyr stands for pyridylalanine. Supplementary table 3: Primer sequences used for qRT-PCR analyses. Gene Forward primer Reverse primer Probe Mmp3 [NT] Mmp8 ...

MMP-8 = details: Supplementary table 2; no method in this paper; known effects; read-out: IC50 towards MMP-8; cited from earlier work
From the text: as §1

MMP-9 = details: Supplementary table 2; no method in this paper; known effects; read-out: IC50 towards MMP-9; cited from earlier work
From the text: as §1

TACE = details: Supplementary table 2; no method in this paper; known effects; read-out: IC50 towards TACE; cited from earlier work
From the text: as §1

[3] = test system: C57BL/6J mice with acute DSS-induced colitis; assay: Treatment of acute DSS-induced colitis with peptide inhibitors; details: for severity of intestinal inflammation by histopathological analysis (histological inflammation and activity scores): all three administration schemes (therapeutic, prophylactic, osmotic pump); for body weight loss at time of killing: Mann-Whitney U
From the text: Acute and chronic dextran sodium sulphate (DSS) colitis were induced as described previously[13][39]. Acute colitis was induced in 8–10 weeks old male and female mice by oral administration of 2–3% DSS (35–50 kDa; MP Biomedicals, Illkirch, France) in the drinking water during 7 days followed by 2–3 days on normal drinking water. All mice were killed at day 9 (Fig. 1a). […] Control mice (WT and MMP-9^−/−) received normal drinking water throughout the duration of the experiment. The body weight of the mice was monitored daily or every other day in case of the acute model, whereas in the chronic model, body weight was followed every 3–4 days. Of importance, WT and MMP-9^−/− mice were co-housed (maximally 5 mice per cage) during the experiments ensuring identical environmental conditions as well as controlling for cage-related effects (for example, coprophagia and intake of food and (DSS-supplemented) drinking water). Both the acute and chronic DSS experiments were repeated three times whereby results could be replicated each time and in total 79 mice were used in the acute models and 35 mice in the chronic models. The number of mice needed was estimated based on previous experience[13] and included at least 5 mice per group to ensure adequate power of detection. […] These mice were excluded from further analyses. […] No randomization was applied before start of the experiments.
Animals were euthanized with sodium pentobarbital (Nembutal, Ovation Pharmaceuticals Inc. Deerfield, USA). The DAI was calculated based on three parameters: loss of body weight (one point for each 5% loss of body weight), consistency of stools (normal=0, soft=2, liquid=4) and presence of gross blood in stools (0=none, 1=present)[13][39]. The colon was isolated, weighted and its length measured from the ileocecal junction to the anus. […] The macroscopic damage score was calculated based on extent of inflammation along the colon (in cm, multiplied by 2 if severe), colonic mesenterial adhesion (0=none, 1=mild, 2=severe) and colonic hyperaemia (0=none and 1=present)[13][39].
Acute colitis was induced in male and female mice via administration of 2% DSS in the drinking water for 7 days followed by 2–4 days on normal drinking water.

[4] = continuous osmotic pump delivery, DSS mice, versus saline
[5] = prophylactic scheme: daily i.p. 250 μg from day 1, 2% DSS mice, versus saline
[6] = therapeutic or prophylactic schemes (daily i.p. 250 μg), DSS mice
[7] = therapeutic scheme: daily i.p. 250 μg from day 6, 2% DSS mice, versus saline

| Substance | plasma levels of peptide inhibitor at time of sacrifice [1] | IC50 (MMP-8) [µM] | IC50 (MMP-9) [µM] | IC50 (TACE) [µM] | severity of intestinal inflammation by histopathological analysis (histological inflammation and activity scores) ([3]; DSS mice) | other colonic measurements (colon weight, colon/body weight ratio and colon weight/length ratio) [3, 4] | body weight loss [3, 5] | disease activity index (DAI) [3, 5] | macroscopic damage score [3, 6] | disease activity index (DAI) [3, 7] | body weight loss at time of killing [3, 7] | further results |
| --- | --- | --- | --- | --- | --- | --- | --- | --- | --- | --- | --- | --- |
| IVRRADRAAVP-GGGG-P(Pyr)CBRGE [Peptide inhibitor B] | inhibitory plasma levels were indeed reached | 0.036 | 0.16 | 15 | did not observe a significant effect | not significantly different | no differences were observed | not significantly different | not altered | higher | significantly more body weight loss | colonic Mmp8 and Mmp3 mRNA expression ([2]; continuous osmotic pump delivery, compared to saline): significantly higher; colonic Mmp9 mRNA expression ([2]; continuous osmotic pump delivery, compared with peptide inhibitor A or saline): significantly increased; colonic expression of Mmp9 mRNA ([2]; prophylactic scheme, compared to saline, qRT-PCR normalized to 18S): significantly increased expression of Mmp9; colonic expression of Mmp3, Mmp8 and Mmp9 mRNA ([2]; therapeutic scheme, compared to peptide inhibitor A or saline, qRT-PCR normalized to 18S): appeared to be higher; IC50 (MMP-3; read-out: IC50 towards MMP-3): 7 µM |
| P(Pyr)CBRGE-GGGG-IVRRADRAAVP [Peptide inhibitor A] | inhibitory plasma levels were indeed reached | 17.6 | 12.5 | 7 | did not observe a significant effect | not significantly different | no differences were observed | not significantly different | not altered | no difference was observed | no difference in body weight loss | IC50 towards MMP-3 (MMP-3): No inhibition; colon length ([3]; continuous osmotic pump delivery, DSS mice, versus peptide inhibitor B or saline): significantly longer; macroscopic damage score [3, 4]: lower macroscopic damage score; body weight loss ([3]; continuous s.c. osmotic pump delivery, 30 mg kg−1 per day, DSS mice, versus peptide inhibitor B and saline): mild protection with lower loss of body weight; disease activity index (DAI) ([3]; continuous s.c. osmotic pump delivery, 30 mg kg−1 per day, DSS mice, versus peptide inhibitor B or saline): significantly lower DAI |

From paper PMC5460016, “Inhibition of gelatinase B/MMP-9 does not attenuate colitis in murine models of inflammatory bowel disease” (Nature Communications, 2017)
